Experiments:
NCX1 = target: T1, NCX1 (Canis lupus familiaris, UniProt P23685); experiment: High-throughput screening of NCX1 reverse mode, Fluo-4-loaded BHK-NCX1 cells, Na+-free pulse; format: cell-based, dog; conditions: for Activity on NCX (SAR discussion, in words): NCX1/NCX3 reverse-mode screening; for Fluo-experiments on BHK-NCX1: NCX1 reverse mode, Na+-free, CTL (100), concentration not given (10 nM and 10 μM screened)
T1 construct: expressed in transfected cells; host or cells: BHK (baby hamster kidney) cells, stably transfected

NCX3 = target: T2, NCX3 (Rattus norvegicus, UniProt P70549); experiment: High-throughput screening of NCX3 reverse mode, Fluo-4-loaded BHK-NCX3 cells, Na+-free pulse; format: cell-based; conditions: CTL (100), concentration not given (10 nM and 10 μM screened)
T2 construct: expressed in transfected cells; host or cells: BHK (baby hamster kidney) cells, stably transfected
T2 sequence (P70549 31-927): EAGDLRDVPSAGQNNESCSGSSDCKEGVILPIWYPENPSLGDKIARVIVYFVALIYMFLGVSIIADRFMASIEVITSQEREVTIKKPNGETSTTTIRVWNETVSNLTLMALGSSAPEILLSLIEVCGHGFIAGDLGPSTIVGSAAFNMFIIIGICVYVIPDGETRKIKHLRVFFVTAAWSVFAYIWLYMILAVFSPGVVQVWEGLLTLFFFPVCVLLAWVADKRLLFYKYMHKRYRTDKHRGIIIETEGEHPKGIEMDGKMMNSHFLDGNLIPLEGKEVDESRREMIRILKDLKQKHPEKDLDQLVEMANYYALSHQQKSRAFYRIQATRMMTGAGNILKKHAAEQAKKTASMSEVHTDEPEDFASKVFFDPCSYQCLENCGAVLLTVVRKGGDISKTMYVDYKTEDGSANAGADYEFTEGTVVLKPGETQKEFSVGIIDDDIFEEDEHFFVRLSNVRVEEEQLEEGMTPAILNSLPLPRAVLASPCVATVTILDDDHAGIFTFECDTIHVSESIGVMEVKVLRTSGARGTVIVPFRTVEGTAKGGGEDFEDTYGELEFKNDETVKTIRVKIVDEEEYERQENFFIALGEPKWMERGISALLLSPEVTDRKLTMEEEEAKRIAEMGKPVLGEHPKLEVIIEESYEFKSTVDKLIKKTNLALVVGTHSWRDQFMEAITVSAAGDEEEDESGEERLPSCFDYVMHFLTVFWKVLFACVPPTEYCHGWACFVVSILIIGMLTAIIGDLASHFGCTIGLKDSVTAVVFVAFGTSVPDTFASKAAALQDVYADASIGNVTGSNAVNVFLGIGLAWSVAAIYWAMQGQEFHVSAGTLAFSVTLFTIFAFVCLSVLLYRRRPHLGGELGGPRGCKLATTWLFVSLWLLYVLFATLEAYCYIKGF

Row | Compound | Activity on NCX (SAR discussion, in words) (NCX1) | Fluo-experiments on BHK-NCX1 (NCX1) | Fluo-experiments on BHK-NCX3 (NCX3) | melting point
1 | O=C1CN=C(c2ccccc2)c2cc(Cl)ccc2N1CN1CCCC1 [Compound 2, 7-Chloro-5-phenyl-1-(pyrrolidin-1-ylmethyl)-1H-benzo[e][1,4]diazepin-2(3H)-one] | inactivity | 100 | 100 | –
2 | O=C1CN=C(c2ccccc2)c2cc([N+](=O)[O-])ccc2N1CN1CCCCC1 [Compound 3, 7-Nitro-5-phenyl-1-(piperidin-1-ylmethyl)-1H-benzo[e][1,4]diazepin-2(3H)-one] | complete loss of activity | 100 | 100 | –
3 | O=C1CN=C(c2ccccc2)c2cc([N+](=O)[O-])ccc2N1CCN1CCCCC1 [Compound 5, 7-Nitro-5-phenyl-1-[2-(piperidin-1-yl)ethyl]-1H-benzo[e][1,4]diazepin-2(3H)-one] | inactive | 100 | 100 | –
4 | CC1CCCCN1CCN1C(=O)CN=C(c2ccccc2)c2cc([N+](=O)[O-])ccc21 (stereo not drawn) [Compound 6, 1-[2-(2-Methylpiperidin-1-yl)ethyl]-7-nitro-5-phenyl-1H-benzo[e][1,4]diazepin-2(3H)-one] | inactive | 100 | 100 | –
5 | CC1CCCN(CCN2C(=O)CN=C(c3ccccc3)c3cc([N+](=O)[O-])ccc32)C1 (stereo not drawn) [Compound 7, 1-[2-(3-Methylpiperidin-1-yl)ethyl]-7-nitro-5-phenyl-1H-benzo[e][1,4]diazepin-2(3H)-one] | inactive | 100 | 100 | –
6 | O=C1CN=C(c2ccccc2)c2cc([N+](=O)[O-])ccc2N1CCn1ccnc1 [Compound 8, 1-[2-(1H-Imidazole-1-yl)ethyl]-7-nitro-5-phenyl-1H-benzo[e][1,4]diazepin-2(3H)-one] | complete loss of activity | 100 | 100 | –
7 | Cc1nccn1CCN1C(=O)CN=C(c2ccccc2)c2cc([N+](=O)[O-])ccc21 [Compound 9, 1-[2-(2-Methyl-1H-imidazole-1-yl)ethyl]-7-nitro-5-phenyl-1H-benzo[e][1,4]diazepin-2(3H)-one] | – | 100 | 100 | –
8 | O=C1CN=C(c2ccccc2)c2cc([N+](=O)[O-])ccc2N1CCN1CCN(c2ccccc2)CC1 [Compound 10, 7-Nitro-5-phenyl-1-[2-(4-phenylpiperazin-1-yl)ethyl]-1H-benzo[e][1,4]diazepin-2(3H)-one] | – | 100 | 100 | –
9 | O=C1CN=C(c2ccccc2)c2cc([N+](=O)[O-])ccc2N1CCN1CCN(c2cccc3ccccc23)CC1 [Compound 11, 1-{2-[4-(Naphthalen-1-yl)piperazin-1-yl]ethyl}-7-nitro-5-phenyl-1H-benzo[e][1,4]diazepin-2(3H)-one] | – | 100 | 100 | –
10 | O=C(CN1C(=O)CN=C(c2ccccc2)c2cc([N+](=O)[O-])ccc21)N1CCCC1 [Compound 12, 7-Nitro-1-[2-Oxo-2-(pyrrolidin-1-yl)ethyl]-5-phenyl-1H-benzo[e][1,4]diazepin-2(3H)-one] | – | 100 | 100 | –
11 | O=C(CN1C(=O)CN=C(c2ccccc2)c2cc([N+](=O)[O-])ccc21)N1CCCCC1 [Compound 13, 7-Nitro-1-[2-Oxo-2-(piperidin-1-yl)ethyl]-5-phenyl-1H-benzo[e][1,4]diazepin-2(3H)-one] | – | 100 | 100 | –
12 | CC1CCCN(C(=O)CN2C(=O)CN=C(c3ccccc3)c3cc([N+](=O)[O-])ccc32)C1 (stereo not drawn) [Compound 15, 1-3-[(3-Methylpiperidin-1-yl)-2-oxoethyl]-7-nitro-5-phenyl-1H-benzo[e][1,4]-diazepin-2(3H)-one] | – | 100 | 100 | –
13 | O=C1CN=C(c2ccccc2)c2cc([N+](=O)[O-])ccc2N1CC(=O)n1ccnc1 [Compound 16, 1-[2-(1H-Imidazole-1-yl)-2-oxoethyl]-7-nitro-5-phenyl-1H-benzo[e][1,4]diazepin-2(3H)-one] | – | 100 | 100 | 120 to 121 °C
14 | Cc1nccn1C(=O)CN1C(=O)CN=C(c2ccccc2)c2cc([N+](=O)[O-])ccc21 [Compound 17, 1-[2-(2-Methyl-1H-imidazole-1-yl)-2-oxoethyl]-7-nitro-5-phenyl-1H-benzo[e][1,4]diazepin-2(3H)-one] | – | 100 | 100 | –
15 | O=C(CN1C(=O)CN=C(c2ccccc2)c2cc([N+](=O)[O-])ccc21)N1CCN(c2ccccc2)CC1 [Compound 18, 7-Nitro-1-[2-Oxo-2-(4-phenylpiperazin-1-yl)ethyl]-5-phenyl-1H-benzo[e][1,4]diazepin-2(3H)-one] | – | 100 | 100 | –
16 | O=C(CN1C(=O)CN=C(c2ccccc2)c2cc([N+](=O)[O-])ccc21)N1CCN(c2cccc3ccccc23)CC1 [Compound 19, 1-{2-[4-(Naphthalen-1-yl)piperazin-1-yl]-2-oxoethyl}-7-nitro-5-phenyl-1H-benzo[e][1,4]-diazepin-2(3H)-one] | – | 100 | 100 | –

Source: paper PMC8713167, “New Insights into the Structure–Activity Relationship and Neuroprotective Profile of Benzodiazepinone Derivatives of Neurounina-1 as Modulators of the Na^+/Ca^2+ Exchanger Isoforms” (Journal of Medicinal Chemistry, 2021)
